Legend:
[1] = tested on: rat alcoholic fatty liver; settings: male Wistar rats; for TG (liver triglyceride): 1000 mg/5 ml/kg p.o., 38% ethyl alcohol 10 ml/kg p.o. 1 hour later, liver excised 6 hours after alcohol, mean ± S.E., n = 8-9
Description: Male Wistar rats, 7 weeks old, were used in fasted state.
The experiment was performed in a control group, drug treatment groups and a normal group, each consisting of 8 to 9 animals.
The treatment groups were orally dosed with GSH and DCE-Et-GS-iPr, each dissolved in distilled water, at the dose level of 1000 mg/5 ml/kg. The control group received 5 ml/kg of distilled water p.o. The normal group was also provided.
One hour after administration of the test substance, 10 ml/kg of 38% ethyl alcohol was orally administered to the animals for induction of fatty liver. The liver was excised 6 hours after administration of ethyl alcohol and the triglyceride (TG) was determined by the acetylacetone method.

[2] = tested on: rat streptozotocin diabetes; assay: Effect on rat streptozotocin diabetes, blood lipids; type: in vivo; settings: STZ-diabetic male SD rats, 100 mg/2 ml/kg i.p. once a day, mean, n = 4-7; for Total Cholesterol Week 4: week 4, tail blood; for Total Cholesterol Week 8: week 8, tail blood; for Total Cholesterol Week 10: week 10, abdominal aorta blood
Description: Using male 4-week-old SD rats, streptozotocin (STZ), 70 mg/kg, was injected into the tail vein to construct a diabetes model. As test substances, DCE-GS, DCE-Et-GS and DCE-Et-GS-iPr, each dissolved in physiological saline, were respectively administered intraperitoneally in doses of 100 mg/2 ml/kg once a day. The control group received physiological saline, 2 ml/kg, i.p. The normal group was also provided.
At weeks 4 and 8 of treatment, the blood was collected from the tail and the total cholesterol was determined. Furthermore, at week 10, the blood was collected from the abdominal aorta for blood biochemical tests.

rat hypertriglyceridemia = assay: Effect on rat hypertriglyceridemia (Intralipid-induced), serum triglyceride; type: in vivo; settings: male Wistar rats; for TG (serum triglyceride): 200 mg/2 ml/kg i.p., Intralipid 2 ml/kg i.v. 0.5 hour after dosing, blood 30 min after injection, mean ± S.E., n = 8-9; for triglyceride (TG) lowering effect (in words): 200 mg/kg i.p., versus control
Description: Intralipid (Otsuka Pharmaceutical Co., Ltd.) was used for induction of hypertriglyceridemia in rats.
The treatment groups were intraperitoneally dosed with glutathione (hereinafter referred to as GSH), S-(diethyl α, β-dicarboxyethyl)glutathione (hereinafter, DCE-Et-GS), S-(diethyl α, β-dicarboxyethyl)glutathione isopropyl ester (hereinafter, DCE-Et-GS-iPr) and S-(α, β-dicarbamoylethyl)glutathione (hereinafter, DCE-NH2 -GS), each dissolved in physiological saline. The dose was invariously 200 mg/2 ml/kg. The control group received 2 ml/kg of physiological saline i.p. The normal group was also provided.
Intralipid 2 ml/kg was injected into the tail vein 0.5 hour after administration of the test substance. Thirty minutes after the injection, the blood was collected and the serum triglyceride (TG) was determined.

Row | Structure (SMILES) | TG (liver triglyceride) [1] [mg/g liver] | triglyceride (TG) lowering effect (in words) ([1]; 1000 mg/kg p.o., versus control) | Total Cholesterol Week 4 [2] [mg/dL] | Total Cholesterol Week 8 [2] [mg/dL] | Total Cholesterol Week 10 [2] [mg/dL] | TG (blood triglycerides) ([2]; week 10) [mg/dL] | VLDL ([2]; week 10) [mg/dL] | β-lipoproteins ([2]; week 10) [mg/dL] | TG (serum triglyceride) (rat hypertriglyceridemia) [mg/dL] | triglyceride (TG) lowering effect (in words) (rat hypertriglyceridemia)
1 | CCOC(=O)CC(SC[C@H](NC(=O)CC[C@H](N)C(=O)O)C(=O)NCC(=O)OC(C)C)C(=O)OCC (stereo partly drawn) [DCE-Et-GS-iPr, S-(diethyl α, β-dicarboxyethyl)glutathione isopropyl ester] | 10.7 ± 0.3 | significant triglyceride (TG) lowering effect | 113.9 | 110.5 | 120 | 404 | 106 | 818 | 66.1 ± 11 | Significant triglyceride (TG) lowering effects
2 | NC(=O)CC(SC[C@H](NC(=O)CC[C@H](N)C(=O)O)C(=O)NCC(=O)O)C(N)=O (stereo partly drawn) [DCE-NH2 -GS, S-(α, β-dicarbamoylethyl)glutathione] |  |  |  |  |  |  |  |  | 72.4 ± 6 | Significant triglyceride (TG) lowering effects
3 | N[C@@H](CCC(=O)N[C@@H](CSC(CC(=O)O)C(=O)O)C(=O)NCC(=O)O)C(=O)O (stereo partly drawn) [DCE-GS, S-(α, β-dicarboxyethyl)glutathione] |  |  | 109.8 | 118.2 | 95 | 406 |  | 759 |  | 
4 | N[C@@H](CCC(=O)N[C@@H](CS)C(=O)NCC(=O)O)C(=O)O [GSH, glutathione, reference compound] | 13.0 ± 0.4 |  |  |  |  |  |  |  | 150.4 ± 12 | 

From patent US5378692A, “Method of lowering lipids” (Senju Pharmaceutical Co., Ltd., priority 1992, dated 1995)
